Like-named read-outs stand apart in the source and are kept apart here.
Assays:
[1] = system: Wildtype strain; assay: HSP26 promoter GFP-uv reporter stress response, fluorimeter; assay type: cell-based, Saccharomyces cerevisiae; parameters: key: F = fluorescent activity from hsp reporter construct, indicating stress response is induced; NF = no fluorescence, no induction of stress response; conditions: predicted expectations
From the text: (§1) Stress response gene reporter constructs are generally constructed as follows: approximately 500 bp to approximately 1,000 bp or more region upstream of the first start codon of the stress gene of interest (the region encompassing the stress response gene promoter) is fused to the coding region of a reporter polypeptide (e.g., GFP-uv in pRS316 (Sikorski and Hieter (1989) Genetics 122(1):19-27, Clontech). In a specific exemplary construct, approximately 500 bp of the sequence upstream of the hsp26 gene were ligated to the coding region of GFP-uv in pRS316 to provide for expression of the GFP-uv reporter polypeptide under control of the HSP26 promoter.
(§2) The above-described HSP26 construct and a control construct (containing no upstream HSP26 promoter sequence) is transformed into 4 strains: a wildtype strain and strains heterozygous for ALG7, HIS3, and TUB2. The his3 heterozygous strain is sensitive to 3-amino triazole; the alg7 heterozygous strain is sensitive to tunicamycin; and the tub2 heterozygous strain is sensitive to benomyl. The expression of hsp26 activity is then monitored using a fluorimeter. Comparisons (with predicted expectations) are as follows: […]

[2] = system: his3 heterozygote; assay: as above; assay type: cell-based, Saccharomyces cerevisiae; parameters: key: F = fluorescent activity from hsp reporter construct, indicating stress response is induced; NF = no fluorescence, no induction of stress response; conditions: predicted expectations
From the text: as §1
(§3) 80% of all heterozygous deletion strains of Saccharomyces cerevisiae have been constructed. Heterozygous deletion strains were generated using homologous gene transplacement (Rothstein, R. (1991) Meth. Enzymol. 194:281-301) in wild-type diploid strains using standard methods. The resulting heterozygotes carry a deletion in one of the two copies of a given gene.
as §2

[3] = system: alg7 heterozygote; assay: as above; assay type: cell-based, Saccharomyces cerevisiae; parameters: key: F = fluorescent activity from hsp reporter construct, indicating stress response is induced; NF = no fluorescence, no induction of stress response; conditions: predicted expectations
From the text: as §1, §3, §2

[4] = system: tub2 heterozygote; assay: as above; assay type: cell-based, Saccharomyces cerevisiae; parameters: key: F = fluorescent activity from hsp reporter construct, indicating stress response is induced; NF = no fluorescence, no induction of stress response; conditions: predicted expectations
From the text: as §1, §3, §2

[5] = system: his3 heterozygous strain; conditions: cited from earlier work
[6] = system: tub2 heterozygous strain; conditions: cited from earlier work
[7] = system: yeast stress response genes; conditions: MMS 0.1%; published data; cited from earlier work
[8] = system: yeast stress response genes; conditions: published data, cited from earlier work

Nc1nc[nH]n1 [3-amino triazole, 3-amino-triazole]
fluorescent activity from hsp26 reporter construct [1]: F | fluorescent activity from hsp26 reporter construct [2]: NF | fluorescent activity from hsp26 reporter construct [3]: F | fluorescent activity from hsp26 reporter construct [4]: F | sensitivity of strain to drug [5]: sensitive

CCCCNC(=O)n1c(NC(=O)OC)nc2ccccc21 [benomyl]
fluorescent activity from hsp26 reporter construct [1]: F | sensitivity of strain to drug [6]: sensitive | fluorescent activity from hsp26 reporter construct [2]: F | fluorescent activity from hsp26 reporter construct [3]: F | fluorescent activity from hsp26 reporter construct [4]: NF

COS(C)(=O)=O [MMS]
fold induction of AMS1 (YGL156W) [7]: 3.3 fold | fold induction of DDR48 (YMR173w) [7]: 6 fold | fold induction of GFA1 (YKL104C) [7]: 3.3 fold | fold induction of GSC2 (YGR032W) [7]: 2.5 fold | fold induction of HSP10 (YOR020C) [7]: 1 fold | fold induction of HSP12 (YFL014W) [7]: 4.2 fold | fold induction of HSP26 (YBR072W) [7]: 2.6 fold | fold induction of HSP30 (YCR021C) [7]: 2 fold | fold induction of HSP42 (YDR171w) [7]: 1.5 fold | fold induction of HSP60 (YLR259C) [7]: 1 fold | fold induction of HSP78 (YDR258C) [7]: 2.8 fold | fold induction of HSP82 (YPL240C) [7]: 1.8 fold | fold induction of HSP104 (YLL026W) [7]: 2 fold | fold induction of HXT5 (YHR096C) [7]: 1.9 fold | fold induction of ISF1 (YMR081C) [7]: 2.9 fold | fold induction of PAI3 (YMR174C) [7]: 5.1 fold | fold induction of PRY1 (YJL079C) [7]: 1 fold | fold induction of PUT1 (YLR142W) [7]: 1 fold | fold induction of SNZ3 (YFL059W) [7]: 2.3 fold | fold induction of SSA1 (YAL005C) [7]: 6.4 fold | fold induction of TSI1 (YLR178C) [7]: 5.7 fold | fold induction of UBC5 (YDR059c) [7]: 5.5 fold | fold induction of YBL049W [7]: 1 fold | fold induction of YDR018C [7]: 1 fold | fold induction of YFL030W [7]: 5 fold | fold induction of YFR026C [7]: 2.2 fold | fold induction of YGR043C [7]: 3.5 fold | fold induction of YIL042C [7]: 1.4 fold | fold induction of YIL117C [7]: 2.3 fold | fold induction of YJL144W [7]: 1.6 fold | fold induction of YKL107W [7]: 1.7 fold | fold induction of YLR053C [7]: 1 fold | fold induction of YLR080W [7]: 5.6 fold | fold induction of YLR194C [7]: 1 fold | fold induction of YMR040W [7]: 1.5 fold | fold induction of YMR090W [7]: 8 fold | fold induction of YMR107W [7]: 1 fold | fold induction of YNL194C [7]: 2.9 fold | fold induction of YPS3 (YLR121C) [7]: 1 fold

C=CC[C@@H]1/C=C(\C)C[C@H](C)C[C@H](OC)[C@H]2O[C@@](O)(C(=O)C(=O)N3CCCC[C@H]3C(=O)O[C@H](/C(C)=C/[C@@H]3CC[C@@H](O)[C@H](OC)C3)[C@H](C)[C@@H](O)CC1=O)[C@H](C)C[C@@H]2OC [FK506]
fold induction of DDR48 (YMR173w) ([8]; FK506 50 μM): 1 fold | fold induction of HSP10 (YOR020C) ([8]; FK506 50 μM): 1 fold | fold induction of HSP12 (YFL014W) ([8]; FK506 50 μM): 1 fold | fold induction of HSP26 (YBR072W) ([8]; FK506 50 μM): 7.1 fold | fold induction of HSP30 (YCR021C) ([8]; FK506 50 μM): 2.3 fold | fold induction of HSP42 (YDR171w) ([8]; FK506 50 μM): 8.7 fold | fold induction of HSP60 (YLR259C) ([8]; FK506 50 μM): 1 fold | fold induction of HSP78 (YDR258C) ([8]; FK506 50 μM): 1 fold | fold induction of HSP82 (YPL240C) ([8]; FK506 50 μM): 1 fold | fold induction of HSP104 (YLL026W) ([8]; FK506 50 μM): 1 fold | fold induction of SSA1 (YAL005C) ([8]; FK506 50 μM): 1 fold | fold induction of UBC5 (YDR059c) ([8]; FK506 50 μM): 1.1 fold | fold induction of AMS1 (YGL156W) ([8]; FK506 50 μm): 2.2 fold | fold induction of GFA1 (YKL104C) ([8]; FK506 50 μm): 1 fold | fold induction of GSC2 (YGR032W) ([8]; FK506 50 μm): 1.1 fold | fold induction of HXT5 (YHR096C) ([8]; FK506 50 μm): 1.6 fold | fold induction of ISF1 (YMR081C) ([8]; FK506 50 μm): 5.4 fold | fold induction of PAI3 (YMR174C) ([8]; FK506 50 μm): 1 fold | fold induction of PRY1 (YJL079C) ([8]; FK506 50 μm): 1 fold | fold induction of PUT1 (YLR142W) ([8]; FK506 50 μm): 7.6 fold | fold induction of SNZ3 (YFL059W) ([8]; FK506 50 μm): 6.3 fold | fold induction of TSI1 (YLR178C) ([8]; FK506 50 μm): 1.3 fold | fold induction of YBL049W ([8]; FK506 50 μm): 6.7 fold | fold induction of YDR018C ([8]; FK506 50 μm): 8.9 fold | fold induction of YFL030W ([8]; FK506 50 μm): 2 fold | fold induction of YFR026C ([8]; FK506 50 μm): 3.7 fold | fold induction of YGR043C ([8]; FK506 50 μm): 2.1 fold | fold induction of YIL042C ([8]; FK506 50 μm): 2.7 fold | fold induction of YIL117C ([8]; FK506 50 μm): 1 fold | fold induction of YJL144W ([8]; FK506 50 μm): 7.6 fold | fold induction of YKL107W ([8]; FK506 50 μm): 2.5 fold | fold induction of YLR053C ([8]; FK506 50 μm): 5.5 fold | fold induction of YLR080W ([8]; FK506 50 μm): 5.5 fold | fold induction of YLR194C ([8]; FK506 50 μm): 1 fold | fold induction of YMR040W ([8]; FK506 50 μm): 1.6 fold | fold induction of YMR090W ([8]; FK506 50 μm): 1.2 fold | fold induction of YMR107W ([8]; FK506 50 μm): 5.9 fold | fold induction of YNL194C ([8]; FK506 50 μm): 6.3 fold | fold induction of YPS3 (YLR121C) ([8]; FK506 50 μm): 2.5 fold

Source: patent publication US6743583B2, “Identification of drugs and drug targets by detection of the stress response” (priority 2000, dated 2004)
